Experimental data reported in BindingDB's records for doi:10.1016/j.bmc.2010.05.071 (University of Innsbruck and Center For Molecular …, 2010).

Biological target: Acetylcholinesterase (Electrophorus electricus, UniProt O42275)
Test: Inhibition of electric eel AChE by Ellman's method

Chain of Acetylcholinesterase (O42275 whole entry): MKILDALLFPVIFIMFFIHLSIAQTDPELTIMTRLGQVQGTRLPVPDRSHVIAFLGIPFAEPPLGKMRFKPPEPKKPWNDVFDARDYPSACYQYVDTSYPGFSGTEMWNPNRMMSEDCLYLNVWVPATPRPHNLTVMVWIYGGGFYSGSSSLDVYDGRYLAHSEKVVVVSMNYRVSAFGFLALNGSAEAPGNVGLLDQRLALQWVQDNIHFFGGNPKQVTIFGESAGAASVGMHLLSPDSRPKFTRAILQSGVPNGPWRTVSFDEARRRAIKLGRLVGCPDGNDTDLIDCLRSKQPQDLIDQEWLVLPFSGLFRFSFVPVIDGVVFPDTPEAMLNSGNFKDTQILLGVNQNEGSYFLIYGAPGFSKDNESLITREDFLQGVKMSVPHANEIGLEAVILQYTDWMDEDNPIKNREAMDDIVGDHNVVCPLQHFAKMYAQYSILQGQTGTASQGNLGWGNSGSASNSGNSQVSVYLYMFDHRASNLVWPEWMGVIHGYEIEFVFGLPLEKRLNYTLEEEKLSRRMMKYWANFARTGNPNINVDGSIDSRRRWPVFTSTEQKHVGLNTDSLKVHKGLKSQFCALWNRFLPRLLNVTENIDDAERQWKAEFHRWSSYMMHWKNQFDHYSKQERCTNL

Work on `O=CN1CC[C@]23CC(=O)CC[C@H]2[C@H]1Cc1c(O)ccc(O)c13` yielded an IC50 of 12.7 µM.
